The structures appear in SMILES notation. Read-outs that look alike come from different tables or passages of the source.

Among the data in patent US20220089598A1, “INHIBITORS OF HUMAN IMMUNODEFICIENCY VIRUS REPLICATION” (VIIV HEALTHCARE UK (No. 5) LIMITED, priority 2018, published 2022) are CC50 and EC50 values, retold here.

Holding throughout (assay type): cell-based
The subject of one data set is uninfected MT2 cells. Kind of data set: Compound cytotoxicity, XTT-based colorimetric assay. As to conditions: day 4, XTT assay. A digest of the protocol: (§1)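 Run under the antiviral-assay protocol but without virus. Viability was read on day 4 and CC50 values were derived from the readout.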
Data set [1] concerns recombinant NL4-3 virus (Renilla luciferase) in MT-2 cells. Kind of data set: HIV cell culture assay (antiviral activity, luciferase readout). In outline: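 Nef-deleted NL4-3 carrying Renilla luciferase, made by transfecting 293T cells, infects MT-2 cells for 4-5 days with serial compound dilutions present. Luciferase is read with a live-cell substrate. EC50 comes from the exponential median-effect equation Fa=1/[1+(ED50/drug conc.)m].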

Data set [2] is described as follows: Compound cytotoxicity, XTT-based colorimetric assay. To be noted: human; uninfected MT2 cells, day 4, XTT assay. A digest of the protocol: as §1

`CS(=O)(=O)Nc1nn(CC(F)F)c2c(-n3c(C(Cc4cc(F)cc(F)c4)NC(=O)Cn4nc(C(F)(F)F)c5c4C(F)(F)C4CC54)nc4nc(-c5ccccc5F)ccc4c3=O)ccc(Cl)c12` [Example 32, N—((S)-1-((3P)-3-(4-chloro-1-(2,2-difluoroethyl)-3-(methylsulfonamido)-1H-indazol-7-yl)-7-(2-fluorophenyl)-4-oxo-3,4-dihydropyrido[2,3-d]pyrimidin-2-yl)-2-(3,5-difluorophenyl)ethyl)-2-((3bS,4aR)-5,5-difluoro-3-(trifluoromethyl)-3b,4,4a,5-tetrahydro-1H-cyclopropa[3,4]cyclopenta[1,2-c]pyrazol-1-yl)acetamide] had a CC50 with uninfected MT2 cells of more than 500 nM. In addition, the concentration for a half-maximal effect (EC50) in data set [1] (MT-2 cells infected for 4-5 days with recombinant NL4-3 virus, luciferase activity, read-out: EC50) came out at 0.077 nM.
For the compound `Cn1nc(NS(C)(=O)=O)c2c(Cl)ccc(-n3c([C@H](Cc4cc(F)cc(F)c4)NC(=O)Cn4nc(C(F)F)c5c4C(F)(F)[C@@H]4C[C@H]54)nc4nc(-c5c(F)cccc5F)ccc4c3=O)c21` (atropisomer, axis not shown; (P)) [Example 3, N—((S)-1-((3P)-3-(4-chloro-1-methyl-3-(methylsulfonamido)-1H-indazol-7-yl)-7-(2,6-difluorophenyl)-4-oxo-3,4-dihydropyrido[2,3-d]pyrimidin-2-yl)-2-(3,5-difluorophenyl)ethyl)-2-((3bS,4aR)-3-(difluoromethyl)-5,5-difluoro-3b,4,4a,5-tetrahydro-1H-cyclopropa[3,4]cyclopenta[1,2-c]pyrazol-1-yl)acetamide], the CC50 at 4 day in data set [2] was more than 100 nM. The 50% effective concentration (EC50) in data set [1] (Renilla, NL43) turned out to be 0.11 nM.
The matching figures for `CS(=O)(=O)Nc1nn(CC(F)F)c2c(-n3c([C@H](Cc4cc(F)cc(F)c4)NC(=O)Cn4nc(C(F)F)c5c4C(F)(F)[C@@H]4C[C@H]54)nc4nc(-c5ccccc5F)ccc4c3=O)ccc(Cl)c12` (atropisomer, axis not shown; (P)) [Example 10, N—((S)-1-((3P)-3-(4-chloro-1-(2,2-difluoroethyl)-3-(methylsulfonamido)-1H-indazol-7-yl)-7-(2-fluorophenyl)-4-oxo-3,4-dihydropyrido[2,3-d]pyrimidin-2-yl)-2-(3,5-difluorophenyl)ethyl)-2-((3bS,4aR)-3-(difluoromethyl)-5,5-difluoro-3b,4,4a,5-tetrahydro-1H-cyclopropa[3,4]cyclopenta[1,2-c]pyrazol-1-yl)acetamide]: more than 100 nM and 0.097 nM.
Taken in the same sequence, the figures for `Cn1nc(NS(C)(=O)=O)c2c(Cl)ccc(-n3c([C@H](Cc4cc(F)cc(F)c4)NC(=O)Cn4nc(C(F)F)c5c4C(F)(F)[C@@H]4C[C@H]54)nc4nc(-c5cc(Cl)c(F)cc5F)ccc4c3=O)c21` (atropisomer, axis not shown; (P)) [Example 6, N—((S)-1-((3P)-3-(4-chloro-1-methyl-3-(methylsulfonamido)-1H-indazol-7-yl)-7-(5-chloro-2,4-difluorophenyl)-4-oxo-3,4-dihydropyrido[2,3-d]pyrimidin-2-yl)-2-(3,5-difluorophenyl)ethyl)-2-((3bS,4aR)-3-(difluoromethyl)-5,5-difluoro-3b,4,4a,5-tetrahydro-1H-cyclopropa[3,4]cyclopenta[1,2-c]pyrazol-1-yl)acetamide] were more than 100 nM and 0.192 nM.
In data set [2], `CS(=O)(=O)Nc1nn(CC(F)(F)F)c2c(-n3c([C@H](Cc4cc(F)cc(F)c4)NC(=O)Cn4nc(C(F)F)c5c4C(F)(F)[C@@H]4C[C@H]54)nc4nc(-c5ccccc5F)ccc4c3=O)ccc(Cl)c12` (atropisomer, axis not shown; (P)) [Example 27, N—((S)-1-((3P)-3-(4-chloro-3-(methylsulfonamido)-1-(2,2,2-trifluoroethyl)-1H-indazol-7-yl)-7-(2-fluorophenyl)-4-oxo-3,4-dihydropyrido[2,3-d]pyrimidin-2-yl)-2-(3,5-difluorophenyl)ethyl)-2-((3bS,4aR)-3-(difluoromethyl)-5,5-difluoro-3b,4,4a,5-tetrahydro-1H-cyclopropa[3,4]cyclopenta[1,2-c]pyrazol-1-yl)acetamide] registered a cytotoxic concentration (CC50) at 4 day of more than 500 nM. Moreover, the EC50 in data set [1] (Renilla, NL43) is 0.088 nM.
Take `Cn1nc(NS(C)(=O)=O)c2c(Cl)ccc(-n3c([C@H](Cc4cc(F)cc(F)c4)NC(=O)Cn4nc(C(F)F)c5c4C(F)(F)[C@@H]4C[C@H]54)nc4nc(-c5ccc(F)c(Cl)c5)ccc4c3=O)c21` (atropisomer, axis not shown; (P)) [Example 29, N—((S)-1-((3P)-3-(4-chloro-1-methyl-3-(methylsulfonamido)-1H-indazol-7-yl)-7-(3-chloro-4-fluorophenyl)-4-oxo-3,4-dihydropyrido[2,3-d]pyrimidin-2-yl)-2-(3,5-difluorophenyl)ethyl)-2-((3bS,4aR)-3-(difluoromethyl)-5,5-difluoro-3b,4,4a,5-tetrahydro-1H-cyclopropa[3,4]cyclopenta[1,2-c]pyrazol-1-yl)acetamide]: the CC50 at 4 day in data set [2] was more than 100 nM. Further, the EC50 in data set [1] (Renilla, NL43) was 0.12 nM.
